Values joined by “and” are separate entries in the source; they are usually repeats but may differ in a detail not shown here. Identical values can stand only once.
Assays:
[1] = tested on: Streptococcus pneumoniae strain D39 wt (serotype 2); experiment: Over-night growth of Streptococcus pneumoniae (OD600, bacterial titers); assay type: cell-based; settings: over night treatment
Description: (§1) Similar to S. aureus, the majority of Streptococcus pneumoniae strains express eukaryotic-like serine/threonine kinases, such as PknB, which are highly conserved between different genera. Additionally, these kinases share high homology to cellular MAP kinases (e.g. ERK, JNK, p38). […] Thus, the impact of PD-0184264 on different strains of Streptococci pneumonia was analyzed. Streptococcus pneumoniae strains can be divided into different serotypes, which differ in their virulence and overall pathogenicity. To test for a serotype- or strain-independent effect, we used the encapsulated strains D39 and TIGR4, which are both virulent, but belong to different serotypes. […] Then, the OD600 was measured again (Results shown in FIG. 11A) and dilution series were objected to BHI agar plates to determine bacterial titers (Results shown in FIG. 11B).

[2] = tested on: Streptococcus pneumoniae strain TIGR4 (serotype 4); experiment: as above; assay type: cell-based; settings: over night treatment
Description: as §1

A549 cells = experiment: A549 cell viability (trypan blue) and LDH release; assay type: cell-based, human; settings: 1-100 μM, 24 and 48 hours
Description: To rule out that the reduction in viral and intracellular bacterial replication was a result of a cytotoxic effect of PD-0184264 on A549 cells, cell viability in presence of increasing concentrations was monitored for 24 and 48 hours. Additionally, a LDH-Assay was performed to determine membrane rupture due to inhibitor treatment. […] A549 cells were treated for 24 (as shown in FIGS. 15A and C) or 48 (as shown in FIGS. 15B and D) hours with increasing concentrations of PD-0184264 (1, 5, 10, 20, 50 or 100 μM). After the incubation times, supernatants were taken for measurement of LDH release (shown in FIGS. 15C, D) using the CytoSelect LDH Cytotoxicity Assay Kit according to the manufacturer's instructions. Additionally, viable cells were counted by staining with trypan blue. Cell viability was normalized to DMSO-treated cells and is shown as % viability. […] Statistical significance was calculated by one-way ANOVA followed by Dunnett's multiple comparisons test (*p<0.05; **p<0.01; […]***p<0.001).

S. aureus 6850 [3] = experiment: Over-night treated culture, bacterial titers (CFU/ml) and OD600; assay type: cell-based, Staphylococcus aureus
MRSA strain USA300 [4] = experiment: as above; assay type: cell-based, Staphylococcus aureus
S. aureus 6850 [5] = assay type: cell-based, Staphylococcus aureus
[6] = tested on: MRSA strain S. aureus (USA300); experiment: Cell-free culture bacterial growth (OD600)
Description: Bacterial growth was monitored for 360 minutes.
MRSA bacteria were incubated with different concentrations of the MEK inhibitor ranging from 0-100 μM and bacterial growth was monitored six hours after cultivation.

[7] = tested on: A549 cells infected with influenza virus (IV) and S. aureus 6850; experiment: Example 8: cytopathic effect in A549 cells infected with influenza virus and S. aureus 6850, light microscopy; assay type: cell-based, human; settings: 10 μM, until 24 h p.i., super-infection
Description: Influenza virus (IV) infection results in enhanced expression of antiviral cytokines, most importantly type I IFNs that activate critical downstream antiviral responses and may also potentiate subsequent bacterial infections. […] Specifically, A549 cells were pre-treated for 1 h with 10 μM of the specific MEK-inhibitor PD-0184264 or DMSO as solvent control. Afterwards, cells were rinsed with PBS and infected with influenza virus (IV) (MOI as indicated) for 30 min at 37° C., 5% CO2. Subsequently, cells were washed with PBS and infected with S. aureus 6850 (MOI as indicated) in the presence or absence of the inhibitor for 3 h. To avoid bacterial over-growth, an antibiotic wash step with lysostaphin (2 μg/mL) was performed for 20 min at 37° C. to remove not-internalized bacteria. Then, cells were washed once and were further incubated until 24 h p.i. in the presence of the inhibitor or solvent. At the end of the incubation period, the cell monolayer was analyzed via light microscopy.

S. aureus = experiment: Resistance development during 17 days of constant treatment; assay type: cell-based, Staphylococcus aureus; settings: 24 h cycles repeated for 17 days
[8] = tested on: A549 cells infected with A/Puerto Rico/8/34 (H1N1) and/or S. aureus 6850; assay type: cell-based
MRSA strain USA300 [9] = experiment: Bacterial growth under heat stress (42° C., 6 h) after inhibitor treatment; assay type: cell-based, Staphylococcus aureus; settings: 20 μM over night, then 42° C. for 6 h, MRSA USA300, vs solvent
Description: (§2) As the kinase is known to play an important role in bacterial stress resistance, bacterial growth under heat stress was monitored after treatment of the bacteria with the inhibitor PD-0184264. S. aureus strain 6850 and MRSA strain USA300 were treated over night with either solvent or 20 μM of the PD-0184264. The next day subcultures with the same amount of bacteria were prepared (confirmed by OD600 and plating on BHI agar) and further incubated at 42° C. for 6 h. Bacterial titers were then calculated via plating of serial dilutions on BHI agar plates. […] This is both observed for the methicillin-sensitive strain 6850 (black bars) as well as for the MRSA strain USA300 (grey bars). Impaired stress tolerance in the presence of the inhibitor is another indication that PD-0184264 directly targets the kinase PknB, which is an important mediator of stress resistance. In summary, the data provide strong circumstantial evidence, that PD-0184264 elicits its antibacterial action by inhibition of the bacterial kinase PknB.

S. aureus strain 6850 = experiment: as above; assay type: cell-based, Staphylococcus aureus; settings: 20 μM over night, then 42° C. for 6 h, strain 6850, vs solvent
Description: as §2

S. aureus 6850 [10] = experiment: Time-of-addition assay, bacterial titers at 0, 3 and 6 h, then medium exchange; assay type: cell-based, Staphylococcus aureus
[11] = tested on: influenza A virus strain RB1 [A/Regensburg/D6/09 (H1N1 pdm09)]; experiment: Progeny virus inhibition assay in A549 cells; assay type: cell-based

**Q.** For O=C(O)c1ccc(F)c(F)c1Nc1ccc(I)cc1Cl [PD-0184264, 2-(2-chloro-4-iodophenylamino)-N-3,4-difluoro benzoic acid], which “sensitivity of growth (OD600, bacterial titers)” value [1] is on record?
**A.** The value was “sensitive”.

**Q.** What about the “sensitivity of growth (OD600, bacterial titers)” value [2] of the same molecule?
**A.** Its value is “sensitive”.

**Q.** And the “cell toxicity (cell viability, LDH release)” value (A549 cells)?
**A.** The value was “does not induce cell toxicity”.

**Q.** And the “reduction of bacterial growth (FIG. 4)” value (S. aureus 6850 [3]; 10 μM, over night, S. aureus 6850)?
**A.** The value was “significant reduction of growth”.

**Q.** And the “reduction of bacterial titers” value (S. aureus 6850 [3]; 20 μM, over night, S. aureus 6850, CFU/ml)?
**A.** Its value is 1.5-2 orders of a magnitude.

**Q.** And the “effect on bacterial titers (CFU/ml)” value (S. aureus 6850 [3]; over night treatment, S. aureus 6850, vs solvent)?
**A.** Its value is “very strong reduction in bacterial load”.

**Q.** What about the “reduction of bacterial growth (FIG. 4)” value (MRSA strain USA300 [4]; 10 μM, over night, MRSA USA300) of the same molecule?
**A.** Its value is “significant reduction of growth”.

**Q.** What about the “reduction of bacterial titers” value (MRSA strain USA300 [4]; 20 μM, over night, MRSA USA300, CFU/ml) of the same molecule?
**A.** Its value is 1.5-2 orders of a magnitude.

**Q.** And the “effect on bacterial titers (CFU/ml)” value (MRSA strain USA300 [4]; over night treatment, MRSA USA300, vs solvent)?
**A.** Its value is “very strong reduction in bacterial load”.

**Q.** And the intracellular bacterial titers (S. aureus 6850 [5])?
**A.** Its intracellular bacterial titers is “reduced intracellular bacterial titers”.

**Q.** And the “bacterial growth (OD600)” value ([6]; 50 μM, monitored for 360 minutes, vs solvent DMSO)?
**A.** The value was “almost complete absent”.

**Q.** What about the “inhibition of bacterial growth (FIG. 3)” value ([6]; starting at 50 μM, 6 hrs) of the same molecule?
**A.** Its value is “almost complete inhibition of growth”.

**Q.** What about the “cytopathic effect (CPE)” value [7] of the same molecule?
**A.** Its value is “completely abolished”.

**Q.** What about the “resistance development in S. aureus” value (S. aureus) of the same molecule?
**A.** Its value is “did not induce resistance”.

**Q.** And the “concentration already showing reduction of the cytopathic effect” value ([8]; bacterial and viral co-infection, FIG. 5)?
**A.** The value was 15 µM.

**Q.** And the “cytopathic effect (CPE), cell monolayer disruption” value ([8]; increasing concentrations, 24 h, IAV (H1N1) MOI 0.001 and S. aureus 6850 MOI 0.1)?
**A.** The value was “reversed in a concentration dependent manner”.

**Q.** What about the “bacterial growth under heat stress (bacterial titers)” value (MRSA strain USA300 [9]) of the same molecule?
**A.** Its value is “strongly impaired”.

**Q.** And the “bacterial growth under heat stress (bacterial titers)” value (S. aureus strain 6850)?
**A.** Its value is “strongly impaired”.

**Q.** What about the “inhibition of bacterial growth, compared with U0126 and gentamicin (0.5 or 2 μg/ml)” value (S. aureus 6850 [10]; S. aureus 6850, 3 h and 6 h post inoculation) of the same molecule?
**A.** Its value is “strongest inhibition of bacterial growth”.

**Q.** And the “mode of antibacterial action after medium exchange” value (S. aureus 6850 [10]; cultures further incubated without substances reached turbidity of solvent culture)?
**A.** The value was “bacteriostatic rather than a bactericidal action”.

**Q.** What about the “reduction of progeny virus” value [11] of the same molecule?
**A.** The value was “almost no reduction”.

**Q.** And the “reduction of virus titer” value [11]?
**A.** Its value is 98.87±0.03% and 91.50±2.08% and 58.97±4.45%.

**Q.** What about the “fold higher EC50 value compared to the EC50 value of CI-1040” value ([11]; CI-1040 value from Haasbach et al. 2017) of the same molecule?
**A.** Its value is 31 fold.

**Q.** What about the EC50 ([11]; Influenza A virus, H1N1, RB1 on A549 cells, FIG. 17B) of the same molecule?
**A.** Its EC50 is 804 nM.

**Q.** And the “S.I. (selectivity index)” value ([11]; against RB1 on A549 cells)?
**A.** Its value is 1960.

**Q.** What about the “fold higher concentration needed to achieve similar reduction of progeny influenza virus as 10 μM CI-1040” value ([11]; in vitro, A549) of the same molecule?
**A.** Its value is roughly 10 fold.
